# Measured values taken from ChEMBL document CHEMBL3227934, “Cardioselectivity of beta-adrenoceptor blocking agents 1. 1-[(4-Hydroxyphenethyl)amino]-3-(aryloxy)propan-2-ols” (J Med Chem, 1979).
# Assays:
# [1] = target: Beta-1 adrenergic receptor (Rattus norvegicus) (UniProt P18090)
# Description: Displacement of [3H]DHA from beta1 adrenergic receptor in rat ventricular muscle by competitive binding assay
# Rattus norvegicus = species on record: Rattus norvegicus; assay: Cardio selectivity ratio of Kapp for beta2 adrenergic receptor in rat lung muscle to Kapp for beta1 adrenergic receptor in rat ventricular muscle
# [2] = target: Beta-2 adrenergic receptor (Rattus norvegicus) (UniProt P10608)
# Beta-2 adrenergic receptor (Rattus norvegicus), sequence (P10608 whole entry, looked up): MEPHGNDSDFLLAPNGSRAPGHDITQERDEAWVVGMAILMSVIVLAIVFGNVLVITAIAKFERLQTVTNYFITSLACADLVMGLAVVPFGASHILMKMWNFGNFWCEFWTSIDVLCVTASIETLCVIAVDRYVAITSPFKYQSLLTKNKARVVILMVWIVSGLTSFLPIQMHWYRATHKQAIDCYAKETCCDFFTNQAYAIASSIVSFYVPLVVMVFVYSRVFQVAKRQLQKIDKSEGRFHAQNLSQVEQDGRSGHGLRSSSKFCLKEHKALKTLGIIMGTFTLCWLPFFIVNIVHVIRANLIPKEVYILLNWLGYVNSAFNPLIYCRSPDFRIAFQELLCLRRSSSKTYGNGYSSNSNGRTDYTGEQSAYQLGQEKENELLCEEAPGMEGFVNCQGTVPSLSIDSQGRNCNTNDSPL
# Description: Displacement of [3H]DHA from beta2 adrenergic receptor in rat lung muscle by competitive binding assay
# Beta-1 adrenergic receptor (Rattus norvegicus), sequence (P18090 whole entry, looked up): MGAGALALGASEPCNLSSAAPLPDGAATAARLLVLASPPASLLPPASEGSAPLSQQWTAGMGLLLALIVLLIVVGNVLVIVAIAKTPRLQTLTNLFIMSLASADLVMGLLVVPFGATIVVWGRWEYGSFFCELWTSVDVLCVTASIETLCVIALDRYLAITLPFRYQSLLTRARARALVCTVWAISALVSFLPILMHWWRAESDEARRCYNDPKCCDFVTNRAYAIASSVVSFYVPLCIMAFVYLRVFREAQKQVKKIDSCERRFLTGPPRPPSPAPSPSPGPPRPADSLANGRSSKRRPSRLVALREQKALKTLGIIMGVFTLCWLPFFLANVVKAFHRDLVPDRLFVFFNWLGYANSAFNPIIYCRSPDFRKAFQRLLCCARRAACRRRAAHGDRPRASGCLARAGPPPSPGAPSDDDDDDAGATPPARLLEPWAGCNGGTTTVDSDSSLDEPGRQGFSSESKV
Compound,Kapp [1] [µM],Ratio (Rattus norvegicus),Kapp [2] [µM]
CC(=O)Nc1ccccc1OCC(O)CNCCc1ccc(O)cc1 (centres undefined),2.1,7.6,16
CCCCCC(=O)Nc1ccc(OCC(O)CNCCc2ccc(O)cc2)c(Cl)c1 (centres undefined),2.7,5,14
Oc1ccc(CCNCC(O)COc2ccccc2)cc1 (centres undefined),0.7,0.3,0.24
COc1ccc(CCNCC(O)COc2ccccc2)cc1OC (centres undefined),0.38,4.7,1.8
O=C1CCCc2c(OCC(O)CNCCc3ccc(O)cc3)cccc21 (centres undefined),0.37,1.5,0.56
COc1ccc(CCNCC(O)COc2ccc(NC(C)=O)cc2)cc1OC (centres undefined),7,32,224
CCCCCC(=O)Nc1ccc(OCC(O)CNCCc2ccc(OC)c(OC)c2)c(Cl)c1 (centres undefined),0.32,53,17
CCCCCC(=O)Nc1ccc(OCC(O)CNC(C)C)cc1 (centres undefined),2.2,16,34
CC(=O)Nc1ccc(OCC(O)CNC(C)C)cc1 (racemic),18,17,313
CCCCCC(=O)Nc1ccc(OCC(O)CNCCc2ccc(O)cc2)cc1 (centres undefined),3.9,10,39
CC(=O)Nc1ccc(OCC(O)CNCCc2ccc(O)cc2)cc1 (centres undefined),18,4.9,88
CC(C)(C)NCC(O)COc1cccc2c1CCCC2=O (centres undefined),0.015,1.1,0.017
CC(C)NCC(O)COc1ccccc1 (centres undefined),0.24,1.5,0.37
CCCCCC(=O)Nc1ccc(OCC(O)CNCCc2ccc(OC)c(OC)c2)cc1 (centres undefined),0.35,77,27
C=CCc1ccccc1OCC(O)CNCCc1ccc(O)cc1 (centres undefined),0.2,1.3,0.27
C=CCc1ccccc1OCC(O)CNC(C)C (racemic),0.0077,2.6,0.02
CC(C)NCC(O)COc1cccc2[nH]ccc12 (racemic),0.014,–,–
